Results reported in patent US9955676B2, “Transgenic model for delay-type hypersensitivity (DTH) and use thereof” (Macau University of Science and Technology, priority 2014, dated 2018).

Assays:
IKK-β+/+ mice = experiment: DNFB-induced delay-type hypersensitivity test with immunohistochemical staining, wild-type mice; type: in vivo, mouse; conditions: DNFB-induced DTH, FIG. 7
Source text: (§1) Delay-Type Hypersensitivity Test and Immunohistochemical Staining.
(§2) The in vivo anti-inflammatory effect of DMY on CD4^+ and CD8^+ lymphocytes is examined by administering this inhibitor to the mouse with delay-type hypersensitivity (DTH) based on the previously described method. The ear samples of DTH mice are fixed in 4% neutral-buffered formalin. Each sample is cut longitudinally into half and embedded in paraffin (Panreac), and then cut into 5 μm sections. Immunohistochemical staining is performed on slides.

IKK-β C46A mutant = target: T1, IKK-β C46A mutant (Homo sapiens, UniProt O14920, C46A); experiment: IKK-β kinase assay (K-LISA IKKβ-Inhibitor Screening Kit) on cysteine mutants; type: biochemical; conditions: FIG. 6a
T1 construct: FLAG; made in house
T1 sequence (O14920 1-756 C46A): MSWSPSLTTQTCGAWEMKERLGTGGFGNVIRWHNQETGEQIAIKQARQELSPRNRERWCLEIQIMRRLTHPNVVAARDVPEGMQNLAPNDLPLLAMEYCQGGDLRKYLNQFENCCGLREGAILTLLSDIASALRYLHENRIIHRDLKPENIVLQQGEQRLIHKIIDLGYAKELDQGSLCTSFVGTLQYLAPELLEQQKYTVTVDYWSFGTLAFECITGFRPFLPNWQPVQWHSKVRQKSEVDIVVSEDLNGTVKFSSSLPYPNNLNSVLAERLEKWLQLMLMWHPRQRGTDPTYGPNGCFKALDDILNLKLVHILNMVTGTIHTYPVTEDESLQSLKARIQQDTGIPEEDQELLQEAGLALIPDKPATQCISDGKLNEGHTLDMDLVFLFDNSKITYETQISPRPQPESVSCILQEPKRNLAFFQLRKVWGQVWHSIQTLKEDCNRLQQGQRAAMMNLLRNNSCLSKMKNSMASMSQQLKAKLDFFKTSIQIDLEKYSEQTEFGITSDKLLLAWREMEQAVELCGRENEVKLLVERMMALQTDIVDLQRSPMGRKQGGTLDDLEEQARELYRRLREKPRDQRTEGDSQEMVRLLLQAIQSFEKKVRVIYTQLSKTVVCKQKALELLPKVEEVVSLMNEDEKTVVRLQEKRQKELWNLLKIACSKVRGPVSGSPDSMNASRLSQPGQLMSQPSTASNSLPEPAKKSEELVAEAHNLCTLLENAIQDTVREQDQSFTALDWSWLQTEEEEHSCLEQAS
Procedure: IKK-β kinase assay is performed using a K-LISA™ IKKβ-Inhibitor Screening Kit (Calbiochem).
To determine the specificity to which cysteine residue(s) on IKK-β for the inhibitory action of a well-known inhibitor, DMY, all other 15 single point mutation IKK-β constructs with cysteine (C) residues are replaced with alanine (A) by site-directed mutagenesis (FIG. 6a), except Cys-46.

IKK-β C46A mutant mice = experiment: DNFB-induced delay-type hypersensitivity test with immunohistochemical staining, mutant mice; type: in vivo, mouse; conditions: homozygous IKK-β C46A mutant mice
Source text: as §1, §2

[1] = test system: IKK-β (wt) / NF-κB signaling; experiment: Western blotting of TNF-α-stimulated IKK-β−/− MEFs transfected with IKK-β wild-type; type: cell-based, mouse; conditions: DMY pretreatment 60 min, FIG. 6c
Procedure: Western Blotting Analysis.
IKK-β^−/− deficient mouse embryonic fibroblasts (MEFs) are provided as a gift by Prof. Michael Karin (University of California, San Diego). IKK-β^−/− deficient MEFs transfected with IKK-β wild-type or mutant C46A constructs are pretreated with DMY at 37° C. for 60 min, and then the cells are stimulated with TNF-α and harvested for western blotting analysis. The expressions of IκBα, p-p65^ser536, FLAG-IKK-β and actin are detected with their specific antibodies.

CIA rats = experiment: Collagen-II induced arthritis (CIA) rat model; type: in vivo
Procedure: Experimental arthritis induced by collagen-II in rats. CIA is induced in female Wistar rats. Dexamethasone (DEX, 0.1 mg/kg), methotrexate (MTX, 3.75 mg/kg, twice per week) and indomethacin (Indo, 1 mg/kg) are used as reference drugs.

O=C1c2c(O)cc(O)cc2O[C@H](c2cc(O)c(O)c(O)c2)[C@H]1O [DMY, dihydromyricetin]
number of CD8+ lymphocytes in ear sections (IKK-β+/+ mice): gradually decreases
kinase inhibitory effect (phosphorylation of IκBα) (IKK-β C46A mutant): abrogates the kinase inhibitory effect
anti-inflammatory potency in DTH responses (IKK-β C46A mutant mice): diminished anti-inflammatory potency
TNF-α-induced phosphorylation of NF-κB p65 and degradation of IκBα [1]: suppression of TNF-α-induced phosphorylation of NF-κB p65 and degradation of IκBα
NF-κB signaling in the knee synovial tissues (CIA rats; CIA rats, FIG. 8c): significantly suppress
organ indexes (CIA rats; CIA rats, FIG. 8d): no adverse impairment
body weight (CIA rats; CIA rats, compared to vehicle- and reference reagents-treated animals, FIG. 8e): prevent loss of body weight
hind paw volumes (CIA rats; compared to vehicle-treated CIA rats, FIG. 8a): significantly decrease
arthritic scores (CIA rats; compared to vehicle-treated CIA rats, FIG. 8b): significantly decrease
